# Test results reported in article PMC7849180 (Frontiers in Pharmacology, 2020).
# Columns and labels:
# ERK = assay: Phosphorylation of Elk-1 by ERK; assay type: biochemical
# Text: (§1) Suzhou Zelgen Biopharmaceuticals Co., Ltd. Jaktinib Hydrochloride Tablets Chemical Drug Class 1 New Drug has been completed. The ongoing toxicity tests include a long-term 39-week toxicity test in Beagle dogs by oral administration, a reproductive toxicity test in rats during the teratogenic sensitive period, and a reproductive toxicity test in rabbits during the teratogenic sensitive period.
# (§2) Preclinical Pharmacodynamic Study
# (§3) Study on the in vitro Pharmacodynamic Effects of ZG0163 at the […]
# (§4) In this study, the effects of ZG0163 was similar to those of positive control compounds, ZG0164 and ZG0178.
# (§5) Study on the in vitro Pharmacodynamic Effects of ZG0163 at the Cellular Level (Ba/F3-EpoR-JAK2V617F cells)
# (§6) JAK2V617F cell line, the compound ZG0163 was able to induce apoptosis of pathogenic cells and eliminate abnormal cell proliferation by inhibiting the JAK-STAT signaling pathway, thus achieving treatment efficacy in myeloproliferative neoplasms. […]
# (§7) cell line, manifested as significant inhibition of phosphorylation of JAK2 and its downstream signaling proteins ERK and STAT5. The effects of ZG0163 was similar to those of positive control compounds, ZG0164 and ZG0178.
# EpoR-JAK2V617F, which was similar to those of positive control compounds, ZG0164
# [1] = PK, single intravenous dose; assay type: in vivo, beagles; conditions: 12.2 mg ZG0128 (1.22 mg/kg)
# Description: Suzhou Zelgen Biopharmaceuticals Co., Ltd. Jaktinib Hydrochloride Tablets Chemical Drug Class 1 New Drug
# Pharmacokinetics of single dose intravenous administration in beagles.
# After intravenous administration of 12.2 mg ZG0128 (the average weight of the beagles was about 10 kg, so the dose given equals to 1.22 mg/kg ZG0128), ZG0163 […]
# AUC0-t was 70.1% of that of the original drug.
# Pharmacokinetics of single-dose intragastric administration.
# The average Tmax of ZG0163 was 2.0 h after a single-dose intragastric administration of 1, 2, and 4 ZG0128 tablets (corresponding to 61, 122, and 244 […]
# mg/ZG0128). […] The plasma […]
# exposure AUC0-t was 459, 948, and 1728 ng•h/mL (mean) and the average plasma […]
# There were large individual differences in plasma exposure AUC0-t in dogs. The pharmacokinetic differences between genders could not be determined. Within the range of 61-244 mg, the AUC0-t of ZG0163 increased proportionally with the increasing dosage. The average Tmax of metabolite ZG0245 was 2.0 h. The plasma exposure of metabolite ZG0245 was roughly 2.16 times
# [2] = test system: Ba/F3-EpoR-JAK2V617F cells; assay: Cell activity of mutant Ba/F3-EpoR-JAK2V617F; assay type: cell-based; conditions: read-out: IC50, inhibition of cell activity
# Text: as §1, §2, §3, §4, §5, §6, §7
# EpoR-JAK2V617F, which was similar to those of positive control compounds, ZG0164 […]
# and ZG0178. However, the inhibitory effect on the activity of Ba/F3-EpoR cell line […]
# respectively. […]
# [3] = Accumulated excretion recovery in urine and feces; assay type: in vivo, human; conditions: 200 mg jaktinib fasted
# Description: For MAD cohorts, blood samples were collected at 0, 0.25, 0.5, 1, 1.5, 2, 3, 4, 5, 6, 8 and 12 h on day 1; 0 h on day 2, 3, 4, 6 and 7; 0, 0.25, 0.5, 1, 1.5, 2, 3, 4, 5, 6, 8, 12, 24, 36 and 48 h on day 10. In food effect cohort, blood samples were collected at 0, 0.25, 0.5, 1, 1.5, 2, 3, 4, 5, 6, 8, 12, 24, 36, 48, 72, 96 and 120 h in period one of group A; 0, 0.25, 0.5, 1, 1.5, 2, 3, 4, 5, 6, 8, 12, 24, 36 and 48 h in period two of group A and the two periods of group B. Blood samples were centrifuged at 3,000 rpm for 10 min at 2–8 °C and stored at -80 °C until liquid chromatography-mass spectrophotometry (LC-MS/MS) analysis. Urine and feces samples were collected in period one of group A of food effect cohort with the intervals 0, 0–6, 6–12, 12–24, 24–48, 48–72, 72–96, 96–120 and 0–120 h, respectively.
# Urine and feces PK parameter was accumulated excretion recovery ratio from time zero to 120 h (Fe0–120h).
substance,measurement,setting,value
Jaktinib,effect on phosphorylation of Elk-1 by ERK,ERK,significantly inhibited
same,plasma clearance CL,[1],49.3 mL/min/kg
same,volume of distribution Vss,[1],3.49 L/kg
same,IC50,[2],500 nM
same,"Fe0–120h in urine and feces, total of jaktinib and metabolites",[3],19.478%
same,"Feces-Fe0–120h, total of jaktinib and metabolites",[3],15.350%
same,"Urine-Fe0–120h, total of jaktinib and metabolites",[3],4.128%
same,"Feces-Fe0–120h, geometric mean",[3]; n = 6,12.681%
same,Total Fe0–120h (urine and feces),[3]; n = 6,12.813%
same,"Urine-Fe0–120h, geometric mean",[3]; n = 6,0.132%
